In ChEMBL document CHEMBL1201862, “PubChem BioAssay data set” (2004):
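In this assay, cells in 96-well plates receive the compound at five concentrations for 48 hours. Endpoints are linearly interpolated between the surrounding concentrations. Here, GI50 denotes the concentration required for 50% inhibition of growth.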 Active and inactive are the calls of the source. No stated cut-off is given here; in the data, active = GI50 up to about 1.1 µM and inactive = higher.

Key:
Experiment in all cases: NCI anticancer screen, dose series, 48 h
SF-295 = tested on: SF-295
RXF 393 = tested on: RXF 393
KM12 = tested on: KM12
RPMI-8226 = tested on: RPMI-8226
M14 = tested on: M14
CAKI-1 = tested on: CAKI-1
T47D = tested on: T47D
SK-OV-3 = tested on: SK-OV-3
PC-3 = tested on: PC-3
MDA-MB-231 = tested on: MDA-MB-231
SK-MEL-5 = tested on: SK-MEL-5
SNB-75 = tested on: SNB-75
TK-10 = tested on: TK-10
SN12C = tested on: SN12C
DU-145 = tested on: DU-145
IGROV-1 = tested on: IGROV-1
NCI-H226 = tested on: NCI-H226
SF-268 = tested on: SF-268
SR = tested on: SR
SNB-19 = tested on: SNB-19
NCI-H23 = tested on: NCI-H23
HL-60 = tested on: HL-60
MDA-N = tested on: MDA-N
SK-MEL-28 = tested on: SK-MEL-28
BT-549 = tested on: BT-549
CCRF-CEM = tested on: CCRF-CEM
HCT-116 = tested on: HCT-116
HOP-62 = tested on: HOP-62
HT-29 = tested on: HT-29
Hs-578T = tested on: Hs-578T
A549 = tested on: A549
SK-MEL-2 = tested on: SK-MEL-2
Malme-3M = tested on: Malme-3M
HCT-15 = tested on: HCT-15
NCI-H460 = tested on: NCI-H460
MCF7 = tested on: MCF7
OVCAR-8 = tested on: OVCAR-8
OVCAR-4 = tested on: OVCAR-4
A498 = tested on: A498
786-0 = tested on: 786-0
K562 = tested on: K562
SW-620 = tested on: SW-620
UACC-62 = tested on: UACC-62
NCI/ADR-RES = tested on: NCI/ADR-RES
COLO 205 = tested on: COLO 205
NCI-H522 = tested on: NCI-H522
UACC-257 = tested on: UACC-257
ACHN = tested on: ACHN
EKVX = tested on: EKVX
MDA-MB-435 = tested on: MDA-MB-435
HCC 2998 = tested on: HCC 2998
MOLT-4 = tested on: MOLT-4
OVCAR-5 = tested on: OVCAR-5
HOP-92 = tested on: HOP-92
UO-31 = tested on: UO-31
OVCAR-3 = tested on: OVCAR-3
SF-539 = tested on: SF-539
U-251 = tested on: U-251
LOX IMVI = tested on: LOX IMVI
DMS-273 = tested on: DMS-273
DLD-1 = tested on: DLD-1
DMS-114 = tested on: DMS-114
M19-MEL = tested on: M19-MEL
KM-20L2 = tested on: KM-20L2
HOP-18 = tested on: HOP-18

With `COc1ccc(CNC2=Nc3ccncc3S(=O)(=O)N2c2ccccc2)cc1` the GI50 (SF-295) was 65 µM (inactive), the GI50 (RXF 393) was 50.7 µM (inactive) and the GI50 (KM12) was 35 µM (inactive). The GI50 (RPMI-8226) was 16.4 µM (inactive), the GI50 (M14) was 57.7 µM (inactive) and the GI50 (CAKI-1) was > 100 µM (inactive). For the same compound, the GI50 (T47D) was 29.3 µM (inactive), the GI50 (SK-OV-3) was > 100 µM (inactive) and the GI50 (PC-3) was 53.6 µM (inactive). For the same compound, the GI50 (MDA-MB-231) was > 100 µM (inactive), the GI50 (SK-MEL-5) was 19 µM (inactive) and the GI50 (SNB-75) was 39.1 µM (inactive). The GI50 (TK-10) was 20.3 µM (inactive), the GI50 (SN12C) was 80.9 µM (inactive) and the GI50 (DU-145) was 45.7 µM (inactive). The GI50 (IGROV-1) was 39.9 µM (inactive), the GI50 (NCI-H226) was 17 µM (inactive) and the GI50 (SF-268) was 52.4 µM (inactive). For the same compound, the GI50 (SR) was 23.3 µM (inactive), the GI50 (SNB-19) was > 100 µM (inactive) and the GI50 (NCI-H23) was 35.5 µM (inactive). For the same compound, the GI50 (HL-60) was 12.8 µM (inactive), the GI50 (MDA-N) was 29.9 µM (inactive) and the GI50 (SK-MEL-28) was 21.6 µM (inactive). For the same compound, the GI50 (BT-549) was 23.2 µM (inactive), the GI50 (CCRF-CEM) was 19.4 µM (inactive) and the GI50 (HCT-116) was 36.5 µM (inactive). The GI50 (HOP-62) was > 100 µM (inactive), the GI50 (HT-29) was 48.3 µM (inactive) and the GI50 (Hs-578T) was 33.8 µM (inactive). The GI50 (A549) was 40.6 µM (inactive), the GI50 (SK-MEL-2) was 41.7 µM (inactive) and the GI50 (Malme-3M) was 49.9 µM (inactive). For the same compound, the GI50 (HCT-15) was 34.3 µM, the GI50 (NCI-H460) was 43.1 µM (inactive) and the GI50 (MCF7) was 38.5 µM (inactive). For the same compound, the GI50 (OVCAR-8) was 49.8 µM (inactive), the GI50 (OVCAR-4) was 37.4 µM (inactive) and the GI50 (A498) was 35.9 µM (inactive). The GI50 (786-0) was 47.4 µM (inactive), the GI50 (K562) was 29 µM (inactive) and the GI50 (SW-620) was 33 µM (inactive). For the same compound, the GI50 (UACC-62) was 40.2 µM (inactive), the GI50 (NCI/ADR-RES) was 35.9 µM (inactive) and the GI50 (COLO 205) was > 100 µM (inactive). The GI50 (NCI-H522) was 34.1 µM (inactive), the GI50 (UACC-257) was 37.4 µM (inactive) and the GI50 (ACHN) was 34 µM (inactive). The GI50 (EKVX) was 65 µM (inactive), the GI50 (MDA-MB-435) was 24.9 µM (inactive) and the GI50 (HCC 2998) was 3.77 µM (inactive). The GI50 (MOLT-4) was 19 µM (inactive), the GI50 (OVCAR-5) was > 100 µM (inactive) and the GI50 (HOP-92) was 29.9 µM (inactive). The GI50 (UO-31) was 45.7 µM (inactive), the GI50 (OVCAR-3) was 82.8 µM (inactive) and the GI50 (SF-539) was 4.74 µM (inactive). The GI50 (U-251) was 68.1 µM (inactive) and the GI50 (LOX IMVI) was 46.9 µM (inactive).
`O=C(Nc1cc(Cl)ccc1Cl)c1cc2ccccc2oc1=O` was tested, and the GI50 (SF-295) was 43.3 µM (inactive), the GI50 (RXF 393) was 37.2 µM (inactive) and the GI50 (KM12) was > 100 µM (inactive). The GI50 (DMS-273) was 98.2 µM (inactive), the GI50 (RPMI-8226) was > 100 µM (inactive) and the GI50 (M14) was > 100 µM (inactive). The GI50 (SK-OV-3) was 38.9 µM (inactive), the GI50 (SK-MEL-5) was > 100 µM (inactive) and the GI50 (SNB-75) was 15.7 µM (inactive). For the same compound, the GI50 (TK-10) was > 100 µM (inactive), the GI50 (SN12C) was 75.9 µM (inactive) and the GI50 (IGROV-1) was > 100 µM (inactive). The GI50 (DLD-1) was > 100 µM (inactive), the GI50 (NCI-H23) was > 100 µM (inactive) and the GI50 (HL-60) was > 100 µM (inactive). For the same compound, the GI50 (SK-MEL-28) was > 100 µM (inactive), the GI50 (CCRF-CEM) was 46.8 µM (inactive) and the GI50 (HCT-116) was > 100 µM (inactive). For the same compound, the GI50 (HOP-62) was 45.6 µM (inactive), the GI50 (HT-29) was > 100 µM (inactive) and the GI50 (A549) was > 100 µM (inactive). The GI50 (SK-MEL-2) was > 100 µM (inactive), the GI50 (Malme-3M) was 18 µM (inactive) and the GI50 (HCT-15) was greater than 100 µM. For the same compound, the GI50 (NCI-H460) was 53.2 µM (inactive), the GI50 (OVCAR-8) was 88.3 µM (inactive) and the GI50 (786-0) was 51.8 µM (inactive). For the same compound, the GI50 (K562) was > 100 µM (inactive), the GI50 (SW-620) was > 100 µM (inactive) and the GI50 (UACC-62) was > 100 µM (inactive). The GI50 (DMS-114) was 78 µM (inactive), the GI50 (COLO 205) was > 100 µM (inactive) and the GI50 (NCI-H522) was > 100 µM (inactive). The GI50 (UACC-257) was 97.3 µM (inactive), the GI50 (ACHN) was 39.3 µM (inactive) and the GI50 (M19-MEL) was > 100 µM (inactive). The GI50 (EKVX) was > 100 µM (inactive), the GI50 (KM-20L2) was > 100 µM (inactive) and the GI50 (HOP-18) was 20.9 µM (inactive). For the same compound, the GI50 (MOLT-4) was 94.8 µM (inactive), the GI50 (OVCAR-3) was 77.6 µM (inactive) and the GI50 (SF-539) was > 100 µM (inactive). The GI50 (U-251) was 59.3 µM (inactive) and the GI50 (LOX IMVI) was 61 µM (inactive).
With `O=C1/C(=C/c2ccc(F)cc2)CNC/C1=C\c1ccc(F)cc1` the GI50 (SF-295) was 2.09 µM (inactive), the GI50 (RXF 393) was 1.82 µM (inactive) and the GI50 (KM12) was 0.53 µM (active). The GI50 (RPMI-8226) was 0.275 µM (active), the GI50 (M14) was 1.99 µM (inactive) and the GI50 (CAKI-1) was 1.12 µM (inactive). For the same compound, the GI50 (T47D) was 3.37 µM (inactive), the GI50 (SK-OV-3) was 6.92 µM (inactive) and the GI50 (PC-3) was 1.79 µM (inactive). For the same compound, the GI50 (MDA-MB-231) was 2.39 µM (inactive), the GI50 (SK-MEL-5) was 1.42 µM (inactive) and the GI50 (SNB-75) was 3.75 µM (inactive). The GI50 (TK-10) was 2.21 µM (inactive), the GI50 (SN12C) was 2.14 µM (inactive) and the GI50 (DU-145) was 1.75 µM (inactive). The GI50 (IGROV-1) was 0.667 µM (active), the GI50 (NCI-H226) was 2.82 µM (inactive) and the GI50 (SF-268) was 0.818 µM (active). The GI50 (SR) was 0.305 µM (active), the GI50 (SNB-19) was 1.59 µM (inactive) and the GI50 (NCI-H23) was 1.5 µM (inactive). The GI50 (HL-60) was 0.383 µM (active), the GI50 (MDA-N) was 1.95 µM (inactive) and the GI50 (SK-MEL-28) was 1.05 µM (active). The GI50 (BT-549) was 1.01 µM (active), the GI50 (CCRF-CEM) was 0.445 µM (active) and the GI50 (HCT-116) was 0.27 µM (active). For the same compound, the GI50 (HOP-62) was 1.78 µM (inactive), the GI50 (HT-29) was 0.664 µM (active) and the GI50 (Hs-578T) was 4.6 µM (inactive). For the same compound, the GI50 (A549) was 2.92 µM (inactive), the GI50 (SK-MEL-2) was 12 µM (inactive) and the GI50 (Malme-3M) was 3.28 µM (inactive). The GI50 (HCT-15) was 0.498 µM, the GI50 (NCI-H460) was 0.675 µM (active) and the GI50 (MCF7) was 0.813 µM (active). For the same compound, the GI50 (OVCAR-8) was 2.07 µM (inactive), the GI50 (OVCAR-4) was 2.09 µM (inactive) and the GI50 (A498) was 2.25 µM (inactive). For the same compound, the GI50 (786-0) was 0.762 µM (active), the GI50 (K562) was 0.245 µM (active) and the GI50 (SW-620) was 0.364 µM (active). The GI50 (UACC-62) was 2.32 µM (inactive), the GI50 (NCI/ADR-RES) was 2.95 µM (inactive) and the GI50 (COLO 205) was 1.44 µM (inactive). For the same compound, the GI50 (NCI-H522) was 1.53 µM (inactive), the GI50 (UACC-257) was 3.76 µM (inactive) and the GI50 (ACHN) was 1.71 µM (inactive). The GI50 (EKVX) was 1.94 µM (inactive), the GI50 (MDA-MB-435) was 2.49 µM (inactive) and the GI50 (HCC 2998) was 0.214 µM (active). For the same compound, the GI50 (MOLT-4) was 2.11 µM (inactive), the GI50 (OVCAR-5) was 2.88 µM (inactive) and the GI50 (HOP-92) was 3.61 µM (inactive). For the same compound, the GI50 (UO-31) was 1.81 µM (inactive), the GI50 (OVCAR-3) was 1.65 µM (inactive) and the GI50 (SF-539) was 0.865 µM (active). For the same compound, the GI50 (U-251) was 0.41 µM (active) and the GI50 (LOX IMVI) was 0.63 µM (active).
